The text below walks through data of patent US10494355B2, “Oxadiazole amine derivative compounds as histone deacetylase 6 inhibitor, and the pharmaceutical composition comprising the same” (Chong Kun Dang Pharmaceutical Corp., priority 2015, dated 2019).

Assay [1] concerns the target T1, human recombinant HDAC6 (Homo sapiens, UniProt Q9UBN7).
T1 construct: purchased Calbiochem 382180
T1 sequence (Q9UBN7 1-1215): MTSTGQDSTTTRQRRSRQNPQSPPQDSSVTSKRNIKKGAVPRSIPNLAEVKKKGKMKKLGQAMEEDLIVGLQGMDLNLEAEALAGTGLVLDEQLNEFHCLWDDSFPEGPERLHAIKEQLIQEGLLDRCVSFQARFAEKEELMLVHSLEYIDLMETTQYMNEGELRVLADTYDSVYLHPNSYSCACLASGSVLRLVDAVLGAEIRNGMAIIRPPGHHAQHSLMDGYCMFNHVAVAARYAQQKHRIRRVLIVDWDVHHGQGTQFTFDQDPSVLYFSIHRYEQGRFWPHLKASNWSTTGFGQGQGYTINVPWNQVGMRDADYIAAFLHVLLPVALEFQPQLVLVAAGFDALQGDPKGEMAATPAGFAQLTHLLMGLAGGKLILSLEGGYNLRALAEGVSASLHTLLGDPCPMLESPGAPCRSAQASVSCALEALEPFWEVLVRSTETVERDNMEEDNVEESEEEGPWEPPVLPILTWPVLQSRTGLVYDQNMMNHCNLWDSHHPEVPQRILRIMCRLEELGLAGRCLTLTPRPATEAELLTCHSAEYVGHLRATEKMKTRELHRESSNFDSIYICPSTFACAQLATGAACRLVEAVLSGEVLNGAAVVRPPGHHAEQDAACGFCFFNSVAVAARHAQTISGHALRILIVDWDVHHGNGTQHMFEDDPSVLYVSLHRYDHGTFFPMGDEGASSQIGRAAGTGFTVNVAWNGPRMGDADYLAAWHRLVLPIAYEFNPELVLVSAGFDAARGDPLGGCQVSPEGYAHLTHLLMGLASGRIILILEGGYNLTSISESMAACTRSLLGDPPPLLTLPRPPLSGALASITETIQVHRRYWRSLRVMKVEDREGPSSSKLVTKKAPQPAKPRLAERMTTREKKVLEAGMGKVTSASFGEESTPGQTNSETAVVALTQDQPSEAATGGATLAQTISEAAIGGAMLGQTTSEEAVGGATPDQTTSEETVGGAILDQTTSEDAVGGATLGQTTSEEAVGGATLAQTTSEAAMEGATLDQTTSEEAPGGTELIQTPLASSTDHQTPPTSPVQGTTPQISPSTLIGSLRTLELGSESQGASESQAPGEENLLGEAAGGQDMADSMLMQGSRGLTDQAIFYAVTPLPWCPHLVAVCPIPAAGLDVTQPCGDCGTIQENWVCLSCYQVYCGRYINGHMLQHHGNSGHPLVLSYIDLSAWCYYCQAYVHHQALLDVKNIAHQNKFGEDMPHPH
Briefly: HDAC6 enzyme activity inhibition assay (HDAC Fluorimetric Drug Discovery Kit). Type of assay: biochemical. The following applies: 30° C. 60 minutes. In short, it runs like this: (§1)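 First, compound in 5-fold dilution steps is combined with 0.3 μg enzyme and 10 μM Fluor de Lys-SIRT1 substrate. After 60 min at 30° C, developer is added for 30 min. Fluorescence at Ex 360/Em 460 then gives IC50 values.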

Assay [2] addresses T2, human recombinant HDAC1 (Homo sapiens, UniProt Q13547).
T2 construct: purchased Enzo Life Science BML-SE456
Briefly: HDAC1 enzyme activity inhibition assay (HDAC Fluorimetric Drug Discovery Kit). Type of assay: biochemical. The following applies: human recombinant HDAC1, 10 μM substrate, 30° C. 60 minutes. In short, it runs like this:
as §1

T2 sequence (Q13547 whole entry): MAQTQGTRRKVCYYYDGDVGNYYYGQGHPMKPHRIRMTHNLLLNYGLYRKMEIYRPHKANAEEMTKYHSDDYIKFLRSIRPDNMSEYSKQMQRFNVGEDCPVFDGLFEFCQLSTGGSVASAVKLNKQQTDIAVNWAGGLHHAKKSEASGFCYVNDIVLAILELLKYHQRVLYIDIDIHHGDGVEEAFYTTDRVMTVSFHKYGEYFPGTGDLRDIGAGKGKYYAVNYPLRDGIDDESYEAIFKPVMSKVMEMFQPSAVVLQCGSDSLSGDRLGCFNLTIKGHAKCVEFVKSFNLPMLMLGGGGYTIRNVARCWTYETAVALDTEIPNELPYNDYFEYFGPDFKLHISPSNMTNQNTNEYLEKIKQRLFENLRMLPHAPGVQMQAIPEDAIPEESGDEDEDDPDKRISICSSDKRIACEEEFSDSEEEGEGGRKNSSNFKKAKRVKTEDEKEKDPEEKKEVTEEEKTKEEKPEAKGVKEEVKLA

For the molecule `Fc1ccc(C2(Nc3ncc(-c4nnc(C(F)(F)F)o4)cn3)CC2)cc1` [Compound 1712, N-(1-(4-fluorophenyl)cyclopropyl)-5-(5-(trifluoromethyl)-1,3,4-oxadiazol-2-yl)pyrimidin-2-amine], the figures for the IC50 in assay [1] and in assay [2] were 100 nM and > 10000 nM, respectively.

`FC(F)c1nnc(-c2cnc(NC3(c4ccccc4)CC3)nc2)o1` [Compound 1524, 5-(5-(difluoromethyl)-1,3,4-oxadiazol-2-yl)-N-(1-phenylcyclopropyl)pyrimidin-2-amine]: the IC50 in assay [1] is 48 nM; in assay [2], > 10000 nM.

As for `Cc1ccccc1C1(Nc2ncc(-c3nnc(C(F)(F)F)o3)cn2)CCC1` [Compound 1672, N-(1-(o-tolyl)cyclobutyl)-5-(5-(trifluoromethyl)-1,3,4-oxadiazol-2-yl)pyrimidin-2-amine], the results for the IC50 in assay [1] and in assay [2] were 234 nM and > 10000 nM, respectively.

On to `Fc1ccc(Cl)c(C2(Nc3ncc(-c4nnc(C(F)(F)F)o4)cn3)CCC2)c1` [Compound 1962, N-(1-(2-chloro-5-fluorophenyl)cyclobutyl)-5-(5-(trifluoromethyl)-1,3,4-oxadiazol-2-yl)pyrimidin-2-amine], for which the concentration for half-maximal inhibition (IC50) is 888 nM in assay [1] and > 10000 nM in assay [2].

Take `FC(F)c1nnc(-c2cnc(NC3(c4ccc(N5CCCCC5)cc4)CCC3)nc2)o1` [Compound 2041, 5-(5-(difluoromethyl)-1,3,4-oxadiazol-2-yl)-N-(1-(4-(piperidin-1-yl)phenyl)cyclobutyl)pyrimidin-2-amine]: the IC50 is 189 nM in assay [1] and > 10000 nM in assay [2].

On to `Fc1ccc(C2(Nc3ncc(-c4nnc(C(F)(F)F)o4)cn3)CC2)cc1Cl` [Compound 1723, N-(1-(3-chloro-4-fluorophenyl)cyclopropyl)-5-(5-(trifluoromethyl)-1,3,4-oxadiazol-2-yl)pyrimidin-2-amine], for which the IC50 was 219 nM in assay [1] and > 10000 nM in assay [2].

As for `FC(F)c1nnc(-c2cnc(NC3(c4ccccn4)CCC3)nc2)o1` [Compound 1640, 5-(5-(difluoromethyl)-1,3,4-oxadiazol-2-yl)-N-(1-(pyridin-2-yl)cyclobutyl)pyrimidin-2-amine], the IC50 was 28 nM in assay [1] and > 10000 nM in assay [2].

As to `FC(F)c1nnc(-c2cnc(NC3(c4ccc(Cl)cc4)CCC3)nc2)o1` [Compound 1616, N-(1-(4-chlorophenyl)cyclobutyl)-5-(5-(difluoromethyl)-1,3,4-oxadiazol-2-yl)pyrimidin-2-amine], the values for the IC50 in assay [1] and in assay [2] were 44 nM and > 10000 nM, respectively.

Regarding `FC(F)c1nnc(-c2cnc(NC3(c4ccccc4Cl)CCC3)nc2)o1` [Compound 1614, N-(1-(2-chlorophenyl)cyclobutyl)-5-(5-(difluoromethyl)-1,3,4-oxadiazol-2-yl)pyrimidin-2-amine], the figures for the IC50 in assay [1] and in assay [2] were 29 nM and > 10000 nM, respectively.

As for `FC(F)c1nnc(-c2cnc(NC3(c4cccs4)CC3)nc2)o1` [Compound 2040, 5-(5-(difluoromethyl)-1,3,4-oxadiazol-2-yl)-N-(1-(thiophen-2-yl)cyclopropyl)pyrimidin-2-amine], the IC50 in assay [1] is 100 nM; in assay [2], > 10000 nM.

Take `FC(F)(F)c1nnc(-c2cnc(NC3(c4ccccc4)CCCC3)nc2)o1` [Compound 1580, N-(1-phenylcyclopentyl)-5-(5-(trifluoromethyl)-1,3,4-oxadiazol-2-yl)pyrimidin-2-amine]: the IC50 in assay [1] is 305 nM; in assay [2], > 10000 nM.

For `FC(F)c1nnc(-c2cnc(NC3(c4ccc(Cl)cc4)CC3)nc2)o1` [Compound 2052, N-(1-(4-chlorophenyl)cyclopropyl)-5-(5-(difluoromethyl)-1,3,4-oxadiazol-2-yl)pyrimidin-2-amine], the values for the IC50 in assay [1] and in assay [2] were 75 nM and > 10000 nM, respectively.

For the molecule `Fc1c(Cl)cccc1C1(Nc2ncc(-c3nnc(C(F)F)o3)cn2)CCC1` [Compound 1965, N-(1-(3-chloro-2-fluorophenyl)cyclobutyl)-5-(5-(difluoromethyl)-1,3,4-oxadiazol-2-yl)pyrimidin-2-amine], the IC50 was 70 nM in assay [1] and > 10000 nM in assay [2].
